Among the test systems are HOP-62 NSCLC; EKVX NSCLC; SF-539 CNS; UACC-62 melanoma; NCI-H226 lung; SK-MEL-28 melanoma; HCT-15 colon; RPMI-8226 leukemia; ACHN renal; SN12C renal.
Holding throughout (test): inhibition of tumour cell growth, NCI panel, 48 h

The values that follow come from PubChem BioAssay (NCI).

“And” between values parts separate entries of the source, which are not always exact repeats. Equal values may be shown once.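 Each compound was tested at five concentrations against cells in 96-well plates for 48 hours. Abbreviation: GI50, concentration required for 50% inhibition of growth. Definition used: TGI = concentration required for complete inhibition of growth.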

On to `CCN(CC)c1ccc(C(=O)c2ccc(N(CC)CC)cc2)cc1`, for which the GI50 in the test with HOP-62 NSCLC was 0.805 µM; with EKVX NSCLC, 1.19 µM; with SF-539 CNS it was 0.436 µM; with UACC-62 melanoma it was 0.429 µM; with NCI-H226 lung, 2.54 µM; in the test with SK-MEL-28 melanoma, 23.1 µM. The GI50 with HCT-15 colon was 0.412 µM; with RPMI-8226 leukemia, 0.519 µM; in the test with ACHN renal it was 0.935 µM; with SN12C renal it was 0.787 µM. The TGI in the test on HOP-62 NSCLC was 98.2 µM; in the test on EKVX NSCLC, above 70.3 µM; with SF-539 CNS it was 10.5 µM; in the test with UACC-62 melanoma, above 100 µM; in the test on NCI-H226 lung it was 61.6 µM; in the test on SK-MEL-28 melanoma it was above 100 µM. The TGI in the test with HCT-15 colon was 36.1 µM; in the test on RPMI-8226 leukemia it was 6.25 µM; in the test with ACHN renal, above 100 µM; in the test with SN12C renal, 35.5 µM.
As to `COC(=O)[C@@H](C)C[C@H](Cc1ccccc1)NC(=O)c1csc([C@@H](C[C@H](C(C)C)N(C)C(=O)[C@@H](NC(=O)[C@H]2CCCCN2C)C2CC2)OC(C)=O)n1`, the GI50 is 0.000745 µM and 0.00165 µM with HOP-62 NSCLC; 0.0046 µM and 0.00165 µM in the test on EKVX NSCLC; 0.00125 µM and 0.00165 µM in the test with SF-539 CNS; 0.009 µM and 0.00417 µM in the test on NCI-H226 lung; 0.000934 µM with SK-MEL-28 melanoma; 0.00131 µM and 0.00165 µM with HCT-15 colon. Besides, the GI50 in the test with RPMI-8226 leukemia was 0.000225 µM and 0.00165 µM; in the test with ACHN renal, 0.00104 µM and 0.00165 µM; in the test on SN12C renal it was 0.00115 µM and 0.00165 µM. For the same compound, the TGI in the test with HOP-62 NSCLC was above 16.5 µM; in the test with EKVX NSCLC, above 16.5 µM; in the test with SF-539 CNS, 0.00448 µM and 0.00257 µM; in the test with UACC-62 melanoma it was above 16.5 µM; with NCI-H226 lung it was 1.18 µM; in the test with HCT-15 colon, above 16.5 µM. Besides, the TGI in the test with RPMI-8226 leukemia, with ACHN renal and in the test on SN12C renal was above 16.5 µM in each case.
Consider `Cc1cnc(C(=O)NNc2nc3sc4c(c3c(=O)n2C)C(C)CCC4)cn1` (stereo not drawn), for which the GI50 was 0.304 µM in the test on HOP-62 NSCLC; 0.292 µM with EKVX NSCLC; 0.396 µM in the test on SF-539 CNS; 0.346 µM in the test with UACC-62 melanoma; 0.404 µM in the test with NCI-H226 lung; 0.537 µM in the test with SK-MEL-28 melanoma. The GI50 in the test with HCT-15 colon was 0.268 µM; in the test on RPMI-8226 leukemia, 0.357 µM; with ACHN renal it was 0.308 µM; with SN12C renal, 0.51 µM. Moreover, the TGI worked out at 5.65 µM with HOP-62 NSCLC; 9.13 µM in the test with EKVX NSCLC; 2.38 µM with SF-539 CNS; 2.24 µM in the test on UACC-62 melanoma; 3.03 µM in the test on NCI-H226 lung; 4.6 µM in the test with SK-MEL-28 melanoma. In addition, the TGI was 11.8 µM in the test on HCT-15 colon, above 20 µM in the test on RPMI-8226 leukemia, 2.02 µM in the test on ACHN renal and 4.55 µM with SN12C renal.
In the case of `Cc1cc(N2CCOCC2)cc2[nH]c(-c3c(NC[C@@H](O)c4cccc(Cl)c4)cc[nH]c3=O)nc12`, the GI50 with HOP-62 NSCLC is 2.16 µM; in the test with EKVX NSCLC it was 1.62 µM; in the test on SF-539 CNS it was 2.02 µM; with UACC-62 melanoma, 2.36 µM; in the test on NCI-H226 lung it was 0.361 µM; in the test on SK-MEL-28 melanoma, 2.15 µM. The GI50 in the test with HCT-15 colon is 2.08 µM; in the test with RPMI-8226 leukemia, 3.22 µM; with ACHN renal, 2.84 µM; with SN12C renal, 0.798 µM. Moreover, the TGI worked out at 12.3 µM with HOP-62 NSCLC; 29.1 µM in the test on EKVX NSCLC; 4.85 µM in the test on SF-539 CNS; 12.6 µM with UACC-62 melanoma; 5.89 µM with NCI-H226 lung; 13.5 µM with SK-MEL-28 melanoma. In addition, the TGI with HCT-15 colon is 31.5 µM; in the test with RPMI-8226 leukemia it was above 100 µM; in the test with ACHN renal it was 80.2 µM; in the test on SN12C renal, 12.7 µM.
With `O=C1C(=Cc2c(O)cc(O)cc2O)C(=O)c2ccccc21`, the TGI is above 100 µM with HOP-62 NSCLC; above 100 µM in the test on EKVX NSCLC; above 58.5 µM in the test with SF-539 CNS; above 54.9 µM in the test with UACC-62 melanoma; above 63 µM with NCI-H226 lung; above 60.3 µM with SK-MEL-28 melanoma. The TGI in the test with HCT-15 colon was above 77 µM; in the test with RPMI-8226 leukemia, above 71.9 µM; in the test with ACHN renal it was above 57.6 µM; in the test with SN12C renal, 37.6 µM.
Regarding `O=C1c2ccccc2-c2c1c1ccccc1c(=O)n2CCCn1ccnc1`, the GI50 in the test with HOP-62 NSCLC is 2.72 µM; in the test on EKVX NSCLC, 9.09 µM; in the test on SF-539 CNS, 2.33 µM; with UACC-62 melanoma, 0.791 µM; in the test with NCI-H226 lung it was 1.35 µM; in the test on SK-MEL-28 melanoma, 3.47 µM. Moreover, the GI50 in the test with HCT-15 colon was 1.9 µM; in the test on RPMI-8226 leukemia it was 0.73 µM; in the test with ACHN renal, 0.885 µM; with SN12C renal, 1.66 µM. Also, the TGI with HOP-62 NSCLC is 13 µM; with EKVX NSCLC, above 100 µM; in the test with SF-539 CNS, 8.06 µM; in the test on UACC-62 melanoma, 2.29 µM; with NCI-H226 lung it was 3.04 µM; with SK-MEL-28 melanoma, above 100 µM. The TGI in the test with HCT-15 colon was above 100 µM; in the test on RPMI-8226 leukemia it was 6.26 µM; in the test on ACHN renal, 3.43 µM; with SN12C renal it was 4.31 µM.
Turning to `C[N+]1=C(/C=C\C=C\c2ccccc2)C(C)(C)c2ccccc21`, the GI50 in the test on HOP-62 NSCLC is 4.1 µM; in the test on EKVX NSCLC it was 2.42 µM; with SF-539 CNS it was 2.59 µM; in the test with UACC-62 melanoma it was 1.65 µM; in the test on NCI-H226 lung it was 4.33 µM; with SK-MEL-28 melanoma, 1.53 µM. Also, the GI50 in the test with HCT-15 colon was 2.27 µM; in the test on RPMI-8226 leukemia, 1.22 µM; with ACHN renal, 5.84 µM; with SN12C renal, 0.863 µM. For the same compound, the TGI worked out at 15.1 µM with HOP-62 NSCLC; 14.4 µM in the test on EKVX NSCLC; 7.57 µM with SF-539 CNS; 4.98 µM in the test with UACC-62 melanoma; 25.5 µM in the test on NCI-H226 lung; 3.46 µM in the test on SK-MEL-28 melanoma. Moreover, the TGI in the test with HCT-15 colon came to 11.8 µM; in the test with RPMI-8226 leukemia, 6.53 µM; with ACHN renal, 18.7 µM; in the test with SN12C renal, 12.4 µM.
Take `CC(C)=CC1=C2C3=C(C(=O)C4(O)Oc5c(C)c6c7c(c5OC24C)[C@@H](C)CC[C@@H]7[C@@H](C)C[C@H]6C=C(C)C)C(C)CCC3C(C)C1` (stereo partly drawn): the GI50 is above 100 µM in the test on HOP-62 NSCLC; above 100 µM with EKVX NSCLC; above 100 µM in the test with SF-539 CNS; above 100 µM in the test on UACC-62 melanoma; above 100 µM in the test with NCI-H226 lung; 8.82 µM in the test with SK-MEL-28 melanoma. The GI50 in the test with HCT-15 colon, in the test with RPMI-8226 leukemia, with ACHN renal and with SN12C renal was above 100 µM in each case. The TGI with HOP-62 NSCLC, in the test on EKVX NSCLC, with SF-539 CNS, with UACC-62 melanoma, in the test with NCI-H226 lung and with SK-MEL-28 melanoma was above 100 µM throughout. In addition, the TGI with HCT-15 colon, with RPMI-8226 leukemia, in the test on ACHN renal and in the test on SN12C renal was above 100 µM each time.
